The test system of series [1] is Mus musculus. Nature of the series: Antidepressant like activity in ip dosed Swiss Webster mouse assessed as reduction of immobility time by forced-swim test. The format is functional, organism-based.
Series [2] relates to Mus musculus. Nature of the series: Antidepressant like activity in Swiss Webster mouse assessed as reduction of immobility time at 20 mg/kg, ip after 30 mins by forced-swim test. Also on record: dose 20 mg/kg. The format is functional, organism-based.
For series [3], the system named is Gallus gallus. Nature of the series: Antidepressant activity in Cockerels assessed as attenuation separation distress vocalization rate in final 30 mins of depression phase at 30 mg/kg, ip. Also on record: dose 30 mg/kg. It counts as functional, organism-based.
The subject of series [4] is Gallus gallus. Nature of the series: Anxiolytic activity in Cockerels assessed as attenuation separation distress vocalization rate during first 5 mins in anxiety phase at 30 mg/kg, ip. It counts as functional, organism-based. Details: dose 30 mg/kg.
The species named for series [5] is Mus musculus. Description: Sedative effect in Swiss Webster mouse assessed as locomotor activity. The format is organism-based. To be noted: in vivo.

Calls of active or inactive are those of the source. The rule behind the calls is not given here.

Take `C=C1CCC[C@H]2[C@](C)(CC3=C(O)C(=O)C=C(OC)C3=O)[C@@H](C)CC[C@]12C`: the result in series [1] was inactive.
As to `CN(C)CCc1c[nH]c2cc(Br)c(Br)cc12`, the result in series [2], in series [3] and in series [4] was Active.
For `CN(C)CCc1c[nH]c2ccc(Br)cc12`, the outcome in series [5] was Active. Besides, the result in series [1] was inactive.
For the molecule `CN1C(=N)N(C)/C(=C/c2c[nH]c3ccccc23)C1=O`, the outcome in series [1] was inactive.
